Assay type in all cases: biochemical
The target in one experiment is T1, TYK2 (Homo sapiens, UniProt P29597).
T1 construct: JAK1 (aa 850-1154) and TYK2 (aa 871-1187) are expressed with an N-terminally fused GST-tag; GST (N); purchased Carna Biosciences, Inc; host or cells: baculovirus expression system
T1 sequence (P29597 871-1187): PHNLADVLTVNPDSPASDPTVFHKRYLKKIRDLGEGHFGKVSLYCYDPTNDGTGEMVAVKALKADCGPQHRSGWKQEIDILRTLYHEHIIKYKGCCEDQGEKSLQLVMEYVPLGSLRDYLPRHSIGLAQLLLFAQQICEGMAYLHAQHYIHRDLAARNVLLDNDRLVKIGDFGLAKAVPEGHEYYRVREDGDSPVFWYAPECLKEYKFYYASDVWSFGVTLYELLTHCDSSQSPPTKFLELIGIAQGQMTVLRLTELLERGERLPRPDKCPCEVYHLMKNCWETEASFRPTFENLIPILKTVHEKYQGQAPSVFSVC
Kind of experiment: JAK kinase assay (HTRF, phosphorylation of synthetic peptide), TYK2. Conditions: catalytic domain, ATP at Km (13 μM); read-out: TYK2 kinase inhibitory activity (EC50). An outline of the steps: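 1 µM biotinylated TK peptide at Km ATP in pH 7.0 Hepes, 20-30 min RT. EDTA stop; overnight streptavidin-XL665/cryptate HTRF read.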

A further experiment addresses T2, JAK3 (Homo sapiens, UniProt P52333).
T2 construct: All four purified enzymes contain only the catalytic domain; His (N); purchased Carna Biosciences, Inc; host or cells: baculovirus expression system
Kind of experiment: JAK kinase assay (HTRF, phosphorylation of synthetic peptide), JAK3. Conditions: catalytic domain, ATP at Km (2 μM); read-out: JAK3 kinase inhibitory activity (EC50).

The next experiment has as its target T3, JAK2 (Homo sapiens, UniProt O60674).
T3 construct: All four purified enzymes contain only the catalytic domain; His (N); purchased Carna Biosciences, Inc; host or cells: baculovirus expression system
The experiment is described as follows: JAK kinase assay (HTRF, phosphorylation of synthetic peptide), JAK2. Conditions: catalytic domain, ATP at Km (4 μM); read-out: JAK2 kinase inhibitory activity (EC50). The essentials:
(§1)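 Catalytic-domain human JAK1 (GST-tagged, aa 850-1154) or His-tagged JAK2, baculovirus-expressed, phosphorylated 1 µM biotinylated TK peptide at Km ATP (JAK1 7 µM, 10 mM MgCl2, 50 nM SEB; JAK2 4 µM, 5 mM MgCl2) in pH 7.0 Hepes, 20-30 min RT. EDTA stop; overnight streptavidin-XL665/cryptate HTRF read.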

Another experiment has as its target T4, JAK1 (Homo sapiens, UniProt P23458).
T4 construct: JAK1 (aa 850-1154) and TYK2 (aa 871-1187) are expressed with an N-terminally fused GST-tag; GST (N); purchased Carna Biosciences, Inc; host or cells: baculovirus expression system
The experiment is described as follows: JAK kinase assay (HTRF, phosphorylation of synthetic peptide), JAK1. Conditions: catalytic domain, ATP at Km (7 μM); read-out: JAK1 kinase inhibitory activity (EC50). An outline of the steps: as §1

Among the data in US9233964B2, “Sulfamide piperazine derivatives as protein tyrosine kinase inhibitors and pharmaceutical use therof” (LEO PHARMA A/S, priority 2011, dated 2016) are EC50 values, retold here.

T3 sequence (O60674 849-1124 limits assumed): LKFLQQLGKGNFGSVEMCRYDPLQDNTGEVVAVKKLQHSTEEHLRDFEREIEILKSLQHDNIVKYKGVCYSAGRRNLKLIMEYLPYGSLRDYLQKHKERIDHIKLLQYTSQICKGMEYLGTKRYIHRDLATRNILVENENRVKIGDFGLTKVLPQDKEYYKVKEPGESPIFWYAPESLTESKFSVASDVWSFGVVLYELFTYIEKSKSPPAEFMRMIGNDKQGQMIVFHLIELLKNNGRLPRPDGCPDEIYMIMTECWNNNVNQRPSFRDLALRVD
T2 sequence (P52333 822-1111 limits assumed): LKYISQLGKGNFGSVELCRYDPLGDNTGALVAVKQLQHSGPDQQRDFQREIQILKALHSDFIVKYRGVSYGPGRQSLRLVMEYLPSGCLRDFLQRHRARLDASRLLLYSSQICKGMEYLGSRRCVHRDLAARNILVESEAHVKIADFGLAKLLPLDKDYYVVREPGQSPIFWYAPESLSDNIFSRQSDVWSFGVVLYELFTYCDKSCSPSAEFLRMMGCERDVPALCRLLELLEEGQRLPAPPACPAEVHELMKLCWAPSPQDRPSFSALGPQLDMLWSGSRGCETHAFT
T4 sequence (P23458 850-1154): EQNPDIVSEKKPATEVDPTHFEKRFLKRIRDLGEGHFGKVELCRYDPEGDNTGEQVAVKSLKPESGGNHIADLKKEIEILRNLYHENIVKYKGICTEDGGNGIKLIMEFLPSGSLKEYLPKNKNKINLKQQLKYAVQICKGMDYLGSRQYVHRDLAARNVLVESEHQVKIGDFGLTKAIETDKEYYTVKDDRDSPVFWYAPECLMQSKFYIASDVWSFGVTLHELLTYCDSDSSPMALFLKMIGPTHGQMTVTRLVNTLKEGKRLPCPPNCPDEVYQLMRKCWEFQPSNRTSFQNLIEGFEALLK

With `CN(C1CCC1)S(=O)(=O)N1CCN(c2ncnc3[nH]ccc23)CC12CC2` [Example 98, N-cyclobutyl-N-methyl-5-(7H-pyrrolo[2,3-d]pyrimidin-4-yl)-5,8-diazaspiro[2.5]octane-8-sulfonamide], the EC50 on TYK2 was 100 to 500 nM; on JAK3 it was 100 to 500 nM; on JAK2, below 100 nM; at JAK1, below 100 nM.

Turning to `CN(CC1CCNC1)S(=O)(=O)N1CCN(c2ncnc3[nH]ccc23)CC12CC2` (stereo not shown) [Int 25], the EC50 on TYK2 was above 500 nM; at JAK3 it was 100 to 500 nM; at JAK2, below 100 nM; at JAK1 it was below 100 nM.

As to `N#CCCCNS(=O)(=O)N1CCN(c2ncnc3[nH]ccc23)CC12CC2` [Example 55, 7-(7H-Pyrrolo[2,3-d]pyrimidin-4-yl)-4,7-diaza-spiro[2.5]octane-4-sulfonic acid (3-cyano-propyl)-amide], the EC50 is 100 to 500 nM at TYK2, below 100 nM on JAK3, below 100 nM on JAK2 and below 100 nM on JAK1.

`CC(C)(C)OC(=O)N(CCCS(C)(=O)=O)S(=O)(=O)N1CCN(c2ncnc3[nH]ccc23)CC12CC2` [Example 196, tert-butyl N-(3-methylsulfonylpropyl)-N-[[5-(7H-pyrrolo[2,3-d]pyrimidin-4-yl)-5,8-diazaspiro[2.5]octan-8-yl]sulfonyl]carbamate]: the concentration for a half-maximal effect (EC50) on TYK2 is above 500 nM; at JAK3, above 500 nM; at JAK2 it was 100 to 500 nM; on JAK1, 100 to 500 nM.

Turning to `CCN(CC1CCC(F)(F)CC1)S(=O)(=O)N1CCN(c2ncnc3[nH]ccc23)CC12CC2` [Example 149, N-[(4,4-difluorocyclohexyl)methyl]-N-ethyl-5-(7H-pyrrolo[2,3-d]pyrimidin-4-yl)-5,8-diazaspiro[2.5]octane-8-sulfonamide], the EC50 on TYK2 was above 500 nM; at JAK3, below 100 nM; at JAK2 it was below 100 nM; at JAK1, below 100 nM.

Regarding `CN(CC1CCCC1)S(=O)(=O)N1CCN(c2ncnc3[nH]ccc23)CC12CC2` [Example 73, N-(cyclopentylmethyl)-N-methyl-5-(7H-pyrrolo[2,3-d]pyrimidin-4-yl)-5,8-diazaspiro[2.5]octane-8-sulfonamide], the 50% effective concentration (EC50) at TYK2, at JAK3, on JAK2 and at JAK1 was below 100 nM throughout.

Turning to `CN(C(=O)C1CCCS(=O)(=O)C1)S(=O)(=O)N1CCN(c2ncnc3[nH]ccc23)CC12CC2` (stereo not shown) [Example 140, N-methyl-1,1-dioxo-N-[[5-(7H-pyrrolo[2,3-d]pyrimidin-4-yl)-5,8-diazaspiro[2.5]octan-8-yl]sulfonyl]thiane-3-carboxamide], the 50% effective concentration (EC50) on TYK2 was above 500 nM; at JAK3, 100 to 500 nM; on JAK2, below 100 nM; on JAK1 it was below 100 nM.

On to `O=S(=O)(N(CCO)CCOc1ccccc1)N1CCN(c2ncnc3[nH]ccc23)CC12CC2` [Example 111, N-(2-hydroxyethyl)-N-(2-phenoxyethyl)-5-(7H-pyrrolo[2,3-d]pyrimidin-4-yl)-5,8-diazaspiro[2.5]octane-8-sulfonamide], for which the concentration for a half-maximal effect (EC50) on TYK2 was above 500 nM; on JAK3, 100 to 500 nM; on JAK2, below 100 nM; at JAK1 it was 100 to 500 nM.

In the case of `CN(CC1CCCNC1)S(=O)(=O)N1CCN(c2ncnc3[nH]ccc23)CC12CC2` (stereo not shown) [Int 27], the concentration giving a half-maximal response (EC50) was above 500 nM at TYK2, above 500 nM on JAK3, 100 to 500 nM at JAK2 and 100 to 500 nM at JAK1.

Take `CN(CCCC#N)S(=O)(=O)N1CCN(c2ncnc3[nH]ccc23)CC12CC2` [Example 35, 7-(7H-Pyrrolo[2,3-d]pyrimidin-4-yl)-4,7-diaza-spiro[2.5]octane-4-sulfonic acid (3-cyano-propyl)-methyl-amide]: the EC50 at TYK2, on JAK3, on JAK2 and at JAK1 was below 100 nM in each case.

With `O=S(=O)(N(CCn1ccnc1)C1CCC1)N1CCN(c2ncnc3[nH]ccc23)CC12CC2` [Example 104, N-cyclobutyl-N-(2-imidazol-1-ylethyl)-5-(7H-pyrrolo[2,3-d]pyrimidin-4-yl)-5,8-diazaspiro[2.5]octane-8-sulfonamide], the EC50 on TYK2 was 100 to 500 nM; at JAK3, 100 to 500 nM; on JAK2 it was below 100 nM; at JAK1, below 100 nM.

Consider `CN(CC1CC(F)(F)C1)S(=O)(=O)N1CCN(c2ncnc3[nH]ccc23)CC12CC2` [Example 85, N-[(3,3-difluorocyclobutyl)methyl]-N-methyl-5-(7H-pyrrolo[2,3-d]pyrimidin-4-yl)-5,8-diazaspiro[2.5]octane-8-sulfonamide], for which the EC50 at TYK2, on JAK3, on JAK2 and at JAK1 was below 100 nM in each case.

Take `O=S(=O)(NC1CCC1)N1CCN(c2ncnc3[nH]ccc23)CC12CC2` [Int 30]: the EC50 on TYK2 was above 500 nM; at JAK3 it was 100 to 500 nM; at JAK2, below 100 nM; at JAK1 it was below 100 nM.

For `CN(C1CN(C(=O)CO)C1)S(=O)(=O)N1CCN(c2ncnc3[nH]ccc23)CC12CC2` [Example 178, N-[1-(2-hydroxyacetyl)azetidin-3-yl]-N-methyl-5-(7H-pyrrolo[2,3-d]pyrimidin-4-yl)-5,8-diazaspiro[2.5]octane-8-sulfonamide], the concentration giving a half-maximal response (EC50) is 100 to 500 nM at TYK2, below 100 nM at JAK3, below 100 nM at JAK2 and below 100 nM on JAK1.

Take `CN(Cc1ccc(OC(F)(F)F)cc1)S(=O)(=O)N1CCN(c2ncnc3[nH]ccc23)CC12CC2` [Example 80, N-methyl-5-(7H-pyrrolo[2,3-d]pyrimidin-4-yl)-N-[[4-(trifluoromethoxy)phenyl]methyl]-5,8-diazaspiro[2.5]octane-8-sulfonamide]: the EC50 at TYK2 was above 500 nM; on JAK3, above 500 nM; at JAK2, 100 to 500 nM; at JAK1, 100 to 500 nM.

In the case of `O=S(=O)(N(CCc1ccccc1)CC1CCCCC1)N1CCN(c2ncnc3[nH]ccc23)CC12CC2` [Example 8, 7-(7H-Pyrrolo[2,3-d]pyrimidin-4-yl)-4,7-diaza-spiro[2.5]octane-4-sulfonic acid cyclohexylmethyl-phenethyl-amide], the EC50 at TYK2, on JAK3, on JAK2 and on JAK1 was above 500 nM throughout.

In the case of `O=S(=O)(N1CCN(c2ncnc3[nH]ccc23)CC12CC2)n1ccnc1` [Int 15], the EC50 is above 500 nM at TYK2, above 500 nM at JAK3, below 100 nM on JAK2 and 100 to 500 nM at JAK1.

As to `CN(C[C@@H]1CCC(=O)N1)S(=O)(=O)N1CCN(c2ncnc3[nH]ccc23)CC12CC2` [Example 183, N-methyl-N-[[(2S)-5-oxopyrrolidin-2-yl]methyl]-5-(7H-pyrrolo[2,3-d]pyrimidin-4-yl)-5,8-diazaspiro[2.5]octane-8-sulfonamide], the EC50 on TYK2, on JAK3, on JAK2 and on JAK1 was below 100 nM throughout.

Consider `COCCN(CCc1ccccc1)S(=O)(=O)N1CCN(c2ncnc3[nH]ccc23)CC12CC2` [Example 22, 7-(7H-Pyrrolo[2,3-d]pyrimidin-4-yl)-4,7-diaza-spiro[2.5]octane-4-sulfonic acid (2-methoxy-ethyl)-phenethyl-amide], for which the EC50 at TYK2 is 100 to 500 nM; on JAK3, below 100 nM; at JAK2, below 100 nM; on JAK1 it was below 100 nM.

`CN(C(=O)C1CCS(=O)(=O)C1)S(=O)(=O)N1CCN(c2ncnc3[nH]ccc23)CC12CC2` (stereo not shown) [Example 135, N-methyl-1,1-dioxo-N-[[5-(7H-pyrrolo[2,3-d]pyrimidin-4-yl)-5,8-diazaspiro[2.5]octan-8-yl]sulfonyl]thiolane-3-carboxamide]: the concentration giving a half-maximal response (EC50) on TYK2 was 100 to 500 nM; on JAK3, below 100 nM; on JAK2, below 100 nM; on JAK1 it was below 100 nM.

`CN(C1COC1)S(=O)(=O)N1CCN(c2ncnc3[nH]ccc23)CC12CC2` [Example 112, N-methyl-N-(oxetan-3-yl)-5-(7H-pyrrolo[2,3-d]pyrimidin-4-yl)-5,8-diazaspiro[2.5]octane-8-sulfonamide]: the concentration for a half-maximal effect (EC50) on TYK2 is 100 to 500 nM; on JAK3, below 100 nM; on JAK2 it was below 100 nM; on JAK1, below 100 nM.

Take `CN(CC1CCNCC1)S(=O)(=O)N1CCN(c2ncnc3[nH]ccc23)CC12CC2` [Int 26]: the concentration for a half-maximal effect (EC50) is above 500 nM on TYK2, 100 to 500 nM at JAK3, below 100 nM at JAK2 and below 100 nM on JAK1.
